This assay has as its target T1, GBA1 (Homo sapiens, UniProt P04062).
T1 construct: endogenous in cells; host or cells: wild-type HEK293T
T1 sequence (P04062 40-536): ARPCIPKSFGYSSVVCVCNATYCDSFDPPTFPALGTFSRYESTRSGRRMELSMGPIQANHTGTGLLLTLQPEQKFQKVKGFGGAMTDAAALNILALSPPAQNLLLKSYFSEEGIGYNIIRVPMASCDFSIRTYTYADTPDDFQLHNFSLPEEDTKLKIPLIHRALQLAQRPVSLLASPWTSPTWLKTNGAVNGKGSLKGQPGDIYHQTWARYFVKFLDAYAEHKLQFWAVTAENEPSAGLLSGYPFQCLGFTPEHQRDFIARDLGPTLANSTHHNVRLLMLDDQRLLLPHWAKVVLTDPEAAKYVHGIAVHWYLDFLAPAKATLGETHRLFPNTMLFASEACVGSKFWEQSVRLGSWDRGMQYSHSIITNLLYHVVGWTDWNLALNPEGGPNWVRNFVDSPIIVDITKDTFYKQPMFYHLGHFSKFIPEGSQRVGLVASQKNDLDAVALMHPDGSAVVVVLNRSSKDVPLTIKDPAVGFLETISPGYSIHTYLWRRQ
As to the kind of experiment: In situ labelling of wild-type HEK293T cells, GBA1. As to conditions: wild-type HEK293T intact cells; for GBA1 labelling in situ: 500 nM, 2.5 h. Type of assay: cell-based. Here is the method:
Importantly, the GBA2 selectivity of β-D-Araf ABPs 3–5 was maintained during in situ labelling of wild-type HEK293T cells (ESI Fig. S9 ^†). […] Even after 24 h incubation, similar results were obtained: ABP 4 selectively labelled GBA2 at 10 nM, with only slight concomitant GBA1 labelling at concentrations higher than 100 nM (ESI Fig. S10 ^†). Selective GBA2 labelling by ABP 3 and 4 finally was also observed in human retinal pigment epithelial-1 cells (Fig. 5C).
Figure S9. Fluorescent gel images of in situ labelling of wild-type HEK293T cells by β-D-Araf aziridine ABPs 3-5.
β-D-Araf ABPs were firstly incubated with intact wild-type HEK293T cells for 1 or 2.5 h (1st incubation) and then cells were harvested. Lysis buffers containing different competitors (1 µM ABP or cyclophellitol inhibitor (CP, 1 µM for 150 nM set, 2 µM for 500 nM set)) was added to the harvested cells, cells were lysed, and lysate was incubated on ice for 30 min and additional 30 min at 37 °C (2nd incubation). Labelling of residual β-glucosidases was performed using ABPs 7 (for 3), 8 (for 4), or 9 (for 5) at 500 nM.
Figure S10. Fluorescent gel images of A) intact HEK293T wild-type cells labeled by β-D-Araf aziridine ABPs 3-5. […]
2.13 In situ intact cells labelling and inhibition assays
Confluent HEK293T cells expressing human endogenous GBA1 and GBA2/GBA3 OE, wild-type HEK293T cells or wild-type human retinal pigment epithelial-1 (RPE-1) cells were cultured in 12-well plates for duplicates or triplicates with (or without) compounds (3-5) for the described incubation times using the conditions as described for the cell culture. The cells were harvested as described in the cell lysis method. After determination of the protein concentration by BCA assay, the lysates were adjusted to 10 μL by addition of potassium phosphate buffer in order to normalize the amount of protein loaded (to 10-25 μg total protein per measurement), and subjected to the ABPP as […]
2.14 In situ visualization of GBA2 for confocal microscopy
HEK293T WT, GBA2 overexpression (GBA1 endogenous and GBA2 OE) and GBA1/GBA2 knockout (KO) GBA2 overexpression (GBA1/2 KO GBA2 OE) cells were cultured in DMEM High Glucose (Capricon Scientific) supplemented with 10% fetal calf serum, 1% (v/v) GlutaMax and 0.1% (w/v) penicillin/streptomycin.2,6 Cells were grown to approximately 75% confluence on Ø15 mm glass coverslips coated with 0.1 mg/ml poly-L-Lysine.
Samples were pretreated for 16 h with 100 nM of a GBA1 inhibitor (218, 0.5% DMSO), 500 nM of a GBA1 and GBA2 inhibitor (229, 0.5% DMSO) or with 0.5% DMSO alone. GBA2 was subsequently incubated by the addition of 50 nM ABP 4 (BODIPY-Red) to cells for 2 h at 37 °C with 5% CO2.
Unbound probe was washed away with PBS and cells were fixed with 4% paraformaldehyde (Alfa Aesar)/PBS for 15 min at RT. […]

For `CC1=CC(C)=[N+]2C1=C(CCCCc1cn(CCCCCCCCN3[C@@H]4[C@H](CO)[C@@H](O)[C@H](O)[C@@H]43)nn1)c1c(C)cc(C)n1[B-]2(F)F` (stereo partly shown) [ABP 3], the “GBA1 labelling in situ” value is reported as “did not visibly label GBA1”. As to `COc1ccc(C2=[N+]3C(=C(CCCCc4cn(CCCCCCCCN5[C@@H]6[C@H](CO)[C@@H](O)[C@H](O)[C@@H]65)nn4)c4ccc(-c5ccc(OC)cc5)n4[B-]3(F)F)C=C2)cc1` (stereo partly shown) [ABP 4], the “GBA1 labelling in situ” value is recorded as “did not visibly label GBA1”. The “Concentrations giving slight concomitant GBA1 labelling in situ” value (24 h incubation) is given as “higher than 100 nM”. With `CN1/C(=C/C=C/C=C/C2=[N+](CCCCCC(=O)NCc3cn(CCCCCCCCN4[C@@H]5[C@H](CO)[C@@H](O)[C@H](O)[C@@H]54)nn3)c3ccccc3C2(C)C)C(C)(C)c2ccccc21` (stereo partly shown) [ABP 5], the “GBA1 labelling in situ” value was “GBA1 labelling only occurred when using a high concentration (500 nM) and longer incubation time (2.5 h)”.
